The values below come from patent publication US11226337B2, “Chemoproteomic profiling of protein electrophilic and oxidative post-translational modifications” (Zenagem, LLC, priority 2017, dated 2022).

The target of assay [1] is T1, FTH1 Ferritin heavy chain (P02794) (Homo sapiens, UniProt P02794).
T1 construct: In Situ Labelling of Cells with Hydrazine Probes for MS Experiments; endogenous in cells; host or cells: HEK293T and/or MDA-MB-231
The experiment in a line: SILAC RP-ABPP. The format is cell-based. The conditions noted are these: SILAC H/L. The method, then: (§1) For MS-based experiments, labelling was performed in a similar manner as described above in Example 2, maintaining the same concentrations of probes. Modifications to this protocol included using isotopically ‘light’ and ‘heavy’ SILAC cells that were also grown to near complete confluence prior to treatment. Isotopically light cells were treated with the non-clickable hydrazine probe (at the same concentration as the probe in ‘enrichment’ experiments) or the probe in the presence of 10-fold excess non-clickable hydrazine probe as a competitor (in ‘competition’ experiments). Isotopically heavy cells were treated with the probe for both types of experiments. These treatments were performed in non-SILAC media. Following treatments, cells were washed with cold PBS to remove the probe-containing media, harvested by scraping, collected by centrifugation (1,400 g, 3 min, 4° C.), washed again by resuspension in cold PBS and frozen as pellets at −80° C. until use.
The fractionated equimolar mixture of heavy and light soluble proteomes (1-1.5 mg) was diluted to 1 mL in PBS. Click reactions were scaled accordingly (except for biotin-azide) to maintain final concentrations of 0.1 mM TBTA, 1 mM CuSO4, 100 μM biotin-azide (10 mM in DMSO) and 1 mM TCEP. The mixture was vortexed and placed on a rotator at ambient temperature for 1 hour. Sequential addition of and mixture with pre-chilled methanol (MeOH, 2 mL), chloroform (CHCl3, 0.5 mL) and PBS (1 mL) on ice quenched the reaction. The precipitated proteome was centrifuged (5,000 g, 10 min, 4° C.) to fractionate the protein interphase from the organic and aqueous solvent layers. The protein pellet was washed with cold 1:1 MeOH:CHCl3 (3×1 mL), mildly sonicated in cold 4:1 MeOH:CHCl3 (2.5 mL) and pelleted once more by centrifugation (5,000 g, 10 min, 4° C.) to ensure click reagents were efficiently removed.
(§2) Heavy and light parent ion chromatograms associated with successfully identified peptides were extracted and compared using CIMAGE software as previously described^69. At least one ion of a co-eluting heavy-light pair must be accurately identified from a fragmentation event that occurred within the retention time window (±10 min) of parent ion elution. To ensure that the correct pair of peaks is quantified, chromatograms are extracted within a 10 ppm error tolerance of the predicted m/z, the signal-to-noise ratio must be >2.5 and the ‘co-elution correlation score’ and ‘envelope correlation score’ must have R^2 values ≥0.8. In addition, peptides detected as ‘singletons,’ where only the heavy ion of a peptide pair was identified, but for which passed all other filtering parameters, are given a default assigned ratio of ‘20,’ which is defined as any measured ratio that is ≥20.
To further eliminate false positives and any stochastic variability in the data, protein ratios were then determined by the median peptide ratio derived from three or more unique quantified peptides. Protein ratios that complied with these criteria from a single experiment were then averaged with ratios acquired from ≥3 replicates to provide final values for each type of experiment in both cell lines with both probes. […] Most importantly, there are no robustly measured ratios for proteins identified as probe 1 targets that had measured ratios of ˜1 with probe 2. Probe targets in HEK293T and MDA-MB-231 cells represent data combined from ≥3 independent biological replicates with each cell type performed with several independent batches of synthesized probes over a period of almost two years.
Analogous experiments were also performed with the aryl hydrazine probe 2 (1 mM, 0.5 hour), which furnished a larger list of high-reactivity proteins (33 in total; Table 3) that contained several of the targets of probe 1 (compared in Table 4), as well as additional proteins that may reflect an expanded chemical reactivity for probe 2.

For the next assay, the system named is HEK293T cells. Description: gel-based in situ probe labelling (rhodamine-azide, in-gel fluorescence). The conditions noted are these: soluble and membrane proteomes, 30 minutes. The format is cell-based, human. The method, then:
For gel-based experiments, cells were plated and grown to near complete confluence at the time of treatment. Cells were washed with cold phosphate buffered saline (PBS, pH 7.4) and replenished with serum-free DMEM (˜15% of normal passage volume, e.g. a 10 cm plate normally passaged with 10 mL media received 1.5 mL) supplemented with 10 mM Na-HEPES buffer (pH 7.5). Unless otherwise indicated, cells were incubated with probes (3 mM and 1 mM for probes 1 and 2, respectively) in the absence or presence of 10-fold excess non-clickable competitor probes (30 mM and 10 mM for 3 and 4, respectively) for 0.5 hour at 37° C. When applicable, probe and competitor were premixed before co-administering to the cells.
The cells were lysed, and the cell proteomes were conjugated to a rhodamine-azide (Rh—N3) reporter tag.
Soluble proteomes from treated cells were diluted to 1 mg/mL. To each sample (50 μL), a freshly prepared “click” or CuAAC reagent mixture (6 μL) containing 0.1 mM tris(benzyltriazolylmethyl)amine (TBTA) (3 μL/sample, 1.7 mM in 4:1 DMSO:t-BuOH), 1 mM CuSO4 (1 μL/sample, 50 mM in H2O), 25 μM azide-rhodamine (1 μL/sample, 1.25 mM in DMSO), and freshly prepared 1 mM tris(2-carboxyethyl)phosphine (TCEP) (1 μL/sample, 50 mM in PBS or H2O) was added to conjugate the fluorophore to probe-labelled proteins. TBTA was purchased from TCI and azide-rhodamine was synthesized as previously described^64. Upon addition of the click mixture, each reaction was immediately mixed by vortexing and then allowed to react at ambient temperature for 1 hour before quenching the reactions with SDS loading buffer (4× stock, 17 μL). Proteins (˜25 μg total protein loaded per gel lane) were resolved by SDS-PAGE (10% acrylamide) and visualized by in-gel fluorescence scanning on a Hitachi FMBIO-II or BioRad ChemiDoc MP flatbed fluorescence scanner.

Assay [2] has as its system Uncharacterized protein (H7C469). The experiment in a line: SILAC RP-ABPP. The conditions noted are these: SILAC H/L. The format is cell-based, human. The method, then:
as §1, with “use. […]” for “use.”
as §2, with “At least one ion of a co-eluting heavy-light pair must be accurately identified from a fragmentation event that occurred within the retention time window (±10 min) of parent ion elution.” left out
To further eliminate false positives and any stochastic variability in the data, protein ratios were then determined by the median peptide ratio derived from three or more unique quantified peptides. […] Most importantly, there are no robustly measured ratios for proteins identified as probe 1 targets that had measured ratios of ˜1 with probe 2. […]

Another assay concerns the target T2, AMD1 (Homo sapiens, UniProt P17707).
T2 construct: Full-length genes encoding three probe 1- and one probe 2-targeted proteins were amplified from a cDNA library; expressed in transfected cells; host or cells: HEK293T
T2 sequence (P17707 68-334 limits assumed): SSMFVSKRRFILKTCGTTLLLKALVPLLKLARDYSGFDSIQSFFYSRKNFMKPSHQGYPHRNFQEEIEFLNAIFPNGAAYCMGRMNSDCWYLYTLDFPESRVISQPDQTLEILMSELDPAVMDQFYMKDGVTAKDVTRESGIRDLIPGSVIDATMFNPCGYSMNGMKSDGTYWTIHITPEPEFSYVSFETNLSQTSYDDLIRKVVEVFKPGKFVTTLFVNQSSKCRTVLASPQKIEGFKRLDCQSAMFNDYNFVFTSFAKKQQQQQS
T2 sequence (P17707 1-67 limits assumed): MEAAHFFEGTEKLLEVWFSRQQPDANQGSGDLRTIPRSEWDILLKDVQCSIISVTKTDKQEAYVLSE
The experiment in a line: gel-based RP-ABPP of transfected HEK293T cells. Type of assay: cell-based. The conditions noted are these: transfected HEK293T cells vs mock.

The mark [3] stands for this setting: probe 1 vs probe 1+10x probe 3, cell line not given.
Where [4] appears, read: probe 2 1 mM 0.5 h vs probe 4, MDA-MB-231.
[5] abbreviates: probe 2 vs probe 2+10x probe 4, MDA-MB-231.

SMILES strings stand for the structures.

Compound `C#CCNN.Cl` [probe 1, prop-2-yn-1-ylhydrazine hydrochloride] had an enrichment ratioavg in assay [1] (probe 1 3 mM 0.5 h vs probe 3, cell line not given) of 1. The competition ratioavg in assay [1] (setting [3]) worked out at 1; in assay [2] (setting [3]), 2. Besides, the “protein labeling, in-gel fluorescence” value in the assay on HEK293T cells (hydrochloride) is recorded as “Concentration-dependent protein labeling”. The “probe labeling of recombinant protein, in-gel fluorescence” value at AMD1 is “reacted with both probes 1 and 2”.

In the case of `C#CCCNC(=O)c1ccc(NN)cc1.Cl` [probe 2, N-(but-3-yn-1-yl)-4-hydrazinylbenzamide hydrochloride], the enrichment ratioavg in assay [1] (setting [4]) amounted to 20; in assay [2] (setting [4]), 14. The competition ratioavg in assay [1] (setting [5]) and in assay [2] (setting [5]) was 5 throughout. For the same compound, the “protein labeling, in-gel fluorescence” value in the assay with HEK293T cells was “Concentration-dependent protein labeling”. Besides, the “probe labeling of recombinant protein, in-gel fluorescence” value at AMD1 was “reacted with both probes 1 and 2”.
